Reference: PMC2924314, “Peptides derived from the HIV-1 integrase promote HIV-1 infection and multi-integration of viral cDNA in LEDGF/p75-knockdown cells” (Virology Journal, 2010)
Where no end group is shown, it is not given here.

Tests used:
LEDGF/p75 = target: T1, LEDGF/p75 (Homo sapiens, UniProt O75475); experiment: ELISA binding of peptides to LEDGF/p75; conditions: apparent Kd according to ELISA using LEDGF and BSA alone as control; peptide-coated plates, room temperature, OD 490 nm, duplicate
T1 construct: histidine tag; made in house
Description: Expression and purification of the histidine-tagged IN and LEDGF/p75 expression vectors, were a generous gift from Prof. Engelman, Dana-Farber Cancer Institute and Division of AIDS, Harvard Medical School, Boston, MA, USA), were performed essentially as described previously.
Protein-peptide, protein-protein and protein-DNA binding was estimated using an ELISA-based binding assay exactly as described previously. Briefly, Maxisorp plates (Nunc) were incubated at room temperature for 2 h with […] of 10 μg/ml synthetic peptide/recombinant proteins in carbonate buffer. After incubation, the solution was removed, the plates were washed three times with PBS, and 200 μl of 10% BSA (Sigma) in PBS (w/v) was added and the plates were further incubated for 2 h at room temperature. After rewashing with PBS, the tested BSA-biotinilated (Bb) peptide or protein (alone or biotinilated) was added for a further 1-h incubation at room temperature. Following three washes with PBS, the concentration of bound molecules was estimated following the addition of streptavidin-horseradish peroxidase (HRP) conjugate (Sigma), as described previously. The enzymatic activity of HRP was estimated by monitoring the product's optical density (OD) at 490 nm using an ELISA plate reader (Tecan Sunrise, Männedorf, Switzerland). Each measurement was performed in duplicate. […]

[1] = ref [25]; cited from earlier work
Description: Following integration of the viral cDNA, several viral proteins are expressed, among them Rev. After its nuclear import the Rev protein is involved in nuclear export of unspliced and partially spliced viral RNA molecules. Thus, similar to IN, the presence the Rev protein is essential for completion of the HIV-1 life cycle. In addition to its expression from integrated viral DNA, Rev can be expressed from unintegrated DNA molecules and thus appear at an early stage in virus-infected cells. Recently, we have shown that early expressed Rev can interact with IN in ...

T1 sequence (O75475 whole entry): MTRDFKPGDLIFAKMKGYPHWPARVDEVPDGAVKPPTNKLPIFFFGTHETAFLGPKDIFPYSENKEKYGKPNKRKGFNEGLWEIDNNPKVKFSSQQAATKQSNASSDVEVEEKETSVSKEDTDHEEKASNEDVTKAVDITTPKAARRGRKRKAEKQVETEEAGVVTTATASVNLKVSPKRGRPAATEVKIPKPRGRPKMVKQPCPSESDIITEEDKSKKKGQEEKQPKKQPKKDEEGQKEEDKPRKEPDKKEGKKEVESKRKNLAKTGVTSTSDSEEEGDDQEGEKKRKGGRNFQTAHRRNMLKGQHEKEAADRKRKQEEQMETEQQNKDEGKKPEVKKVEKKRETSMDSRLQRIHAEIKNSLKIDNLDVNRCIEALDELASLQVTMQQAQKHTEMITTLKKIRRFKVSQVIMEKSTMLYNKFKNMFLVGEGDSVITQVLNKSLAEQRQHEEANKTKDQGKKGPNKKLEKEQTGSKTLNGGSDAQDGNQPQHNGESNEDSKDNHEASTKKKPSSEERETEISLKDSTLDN

In the case of WTAVQMAVFIHNFKRK [INS], the Kd (LEDGF/p75) is listed as 2.2 ± 0.7 µM and the “cell permeability (result in words)” value [1] is listed as “cell-permeable”.
